From ChEMBL document CHEMBL1128468, “Amino acid side chain descriptors for quantitative structure-activity relationship studies of peptide analogues” (J Med Chem, 1995) come the findings set out here.

Peptide text beside a SMILES is read from it.

The target in test [1] is T1, Substance-K receptor (Rattus norvegicus, UniProt P16610).
T1 sequence (P16610 whole entry): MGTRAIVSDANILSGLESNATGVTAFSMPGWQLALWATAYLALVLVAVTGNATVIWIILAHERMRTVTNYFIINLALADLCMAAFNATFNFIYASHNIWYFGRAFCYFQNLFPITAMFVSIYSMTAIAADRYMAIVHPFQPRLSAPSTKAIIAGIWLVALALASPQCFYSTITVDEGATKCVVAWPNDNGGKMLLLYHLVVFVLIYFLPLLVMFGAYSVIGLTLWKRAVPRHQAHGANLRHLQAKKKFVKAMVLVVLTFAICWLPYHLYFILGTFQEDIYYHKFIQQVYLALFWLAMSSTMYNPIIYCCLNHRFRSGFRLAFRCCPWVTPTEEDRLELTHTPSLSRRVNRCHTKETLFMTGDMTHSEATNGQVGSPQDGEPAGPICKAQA
The experiment in a line: Antagonism against Tachykinin receptor 2 in rat vas deferens(RVD). In kind it is functional. Particulars: read-out: pA2 (converted).

Test [2] addresses T2, Substance-K receptor (Mesocricetus auratus, UniProt P51144).
T2 sequence (P51144 whole entry): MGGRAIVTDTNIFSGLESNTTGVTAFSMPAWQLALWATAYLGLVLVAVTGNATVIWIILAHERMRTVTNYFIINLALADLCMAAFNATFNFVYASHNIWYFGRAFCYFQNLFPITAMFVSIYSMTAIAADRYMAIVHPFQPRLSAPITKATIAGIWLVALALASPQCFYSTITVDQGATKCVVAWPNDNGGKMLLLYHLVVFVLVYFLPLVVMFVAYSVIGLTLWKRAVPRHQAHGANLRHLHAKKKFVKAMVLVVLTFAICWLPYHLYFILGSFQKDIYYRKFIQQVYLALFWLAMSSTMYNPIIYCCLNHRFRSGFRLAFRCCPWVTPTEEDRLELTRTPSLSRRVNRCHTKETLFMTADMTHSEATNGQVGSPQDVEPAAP
Put plainly: Antagonist activity against Tachykinin receptor 2 was measured by Hamster isolated trachea(HT) assay. In kind it is functional, tissue-based. Conditions: read-out: pA2 (converted).

The target of test [3] is T3, Substance-K receptor (Oryctolagus cuniculus, UniProt P79218).
T3 sequence (P79218 whole entry): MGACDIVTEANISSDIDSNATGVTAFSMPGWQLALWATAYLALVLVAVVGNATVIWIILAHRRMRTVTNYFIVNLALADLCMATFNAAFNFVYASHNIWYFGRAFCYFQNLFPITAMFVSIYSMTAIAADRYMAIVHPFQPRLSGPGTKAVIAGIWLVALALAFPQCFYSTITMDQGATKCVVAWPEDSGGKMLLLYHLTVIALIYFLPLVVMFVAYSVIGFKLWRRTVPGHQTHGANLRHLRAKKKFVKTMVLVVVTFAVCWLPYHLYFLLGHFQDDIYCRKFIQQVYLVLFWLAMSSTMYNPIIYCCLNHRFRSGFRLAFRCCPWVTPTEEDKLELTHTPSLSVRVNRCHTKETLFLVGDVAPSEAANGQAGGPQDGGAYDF
Put plainly: Antagonist activity against Tachykinin receptor 2 was measured by Rabbit pulmonary artery(RPA) assay. In kind it is functional. Particulars: read-out: pA2 (converted).

Test [4] can be described thus: Bitter tasting threshold was expressed as log 1/T. In kind it is functional.
For test [5], the target named is Angiotensin-converting enzyme (Homo sapiens, UniProt P12821). The experiment in a line: Biological activity was measured against Angiotensin I converting enzyme. Particulars: read-out: Log 1/IC50 (converted).
Chain of Angiotensin-converting enzyme (P12821 whole entry): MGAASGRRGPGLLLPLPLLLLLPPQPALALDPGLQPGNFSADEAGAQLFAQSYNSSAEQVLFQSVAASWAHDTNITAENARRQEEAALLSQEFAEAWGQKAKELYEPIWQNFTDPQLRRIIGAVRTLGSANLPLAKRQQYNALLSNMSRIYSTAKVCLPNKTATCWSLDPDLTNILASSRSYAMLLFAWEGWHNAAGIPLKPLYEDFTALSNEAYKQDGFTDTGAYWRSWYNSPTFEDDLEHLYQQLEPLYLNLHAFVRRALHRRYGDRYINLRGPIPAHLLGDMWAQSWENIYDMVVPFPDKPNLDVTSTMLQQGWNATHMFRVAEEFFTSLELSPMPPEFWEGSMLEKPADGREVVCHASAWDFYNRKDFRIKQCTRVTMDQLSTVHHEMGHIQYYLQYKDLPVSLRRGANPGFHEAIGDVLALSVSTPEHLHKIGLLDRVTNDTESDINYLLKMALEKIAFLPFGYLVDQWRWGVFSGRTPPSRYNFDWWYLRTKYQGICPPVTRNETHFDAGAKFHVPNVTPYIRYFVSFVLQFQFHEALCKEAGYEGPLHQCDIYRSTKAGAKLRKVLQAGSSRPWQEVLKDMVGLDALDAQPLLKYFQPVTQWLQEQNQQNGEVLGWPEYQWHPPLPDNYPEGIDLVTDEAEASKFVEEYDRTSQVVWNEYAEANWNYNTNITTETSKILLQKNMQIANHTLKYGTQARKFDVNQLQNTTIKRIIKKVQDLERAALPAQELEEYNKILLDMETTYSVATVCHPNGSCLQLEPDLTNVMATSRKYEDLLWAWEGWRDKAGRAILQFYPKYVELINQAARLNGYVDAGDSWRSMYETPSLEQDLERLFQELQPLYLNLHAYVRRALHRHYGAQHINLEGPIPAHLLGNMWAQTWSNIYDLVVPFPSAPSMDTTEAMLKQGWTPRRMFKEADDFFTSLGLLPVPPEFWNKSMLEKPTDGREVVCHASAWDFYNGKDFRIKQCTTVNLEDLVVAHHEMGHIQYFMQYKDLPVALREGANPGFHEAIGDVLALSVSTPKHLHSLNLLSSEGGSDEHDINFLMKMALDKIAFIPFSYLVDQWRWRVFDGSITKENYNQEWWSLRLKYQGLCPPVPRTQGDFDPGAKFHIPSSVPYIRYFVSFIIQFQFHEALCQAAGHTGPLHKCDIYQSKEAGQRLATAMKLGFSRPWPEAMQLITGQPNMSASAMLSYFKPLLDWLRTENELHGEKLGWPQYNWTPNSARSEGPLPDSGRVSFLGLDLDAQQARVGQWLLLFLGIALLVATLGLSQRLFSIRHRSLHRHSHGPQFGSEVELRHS

Take `CC(C)[C@H](NC(=O)[C@H](Cc1c[nH]c2ccccc12)NC(=O)[C@H](Cc1ccc(O)cc1)NC(=O)[C@@H](N)CC(=O)O)C(=O)N[C@H](Cc1c[nH]c2ccccc12)C(=O)N[C@H](Cc1c[nH]c2ccccc12)C(=O)N[C@@H](CCCN=C(N)N)C(=O)O`: the Kb at Substance-K receptor [1] was 25.7 µM; on Substance-K receptor [2], 15.5 µM; on Substance-K receptor [3], 100 µM.

Regarding `CC(C)[C@H](NC(=O)[C@@H](Cc1c[nH]c2ccccc12)NC(=O)[C@H](Cc1ccc(O)cc1)NC(=O)[C@@H](N)CC(=O)O)C(=O)N[C@H](Cc1c[nH]c2ccccc12)C(=O)N[C@H](Cc1c[nH]c2ccccc12)C(=O)N[C@@H](Cc1ccccc1)C(=O)O`, the Kb on Substance-K receptor [1] is 0.288 µM; on Substance-K receptor [2], 0.933 µM; on Substance-K receptor [3] it was 1.26 µM.

As to `CC(C)[C@@H](NC(=O)[C@@H](Cc1c[nH]c2ccccc12)NC(=O)[C@@H](Cc1ccc(O)cc1)NC(=O)[C@@H](N)CC(=O)O)C(=O)NCC(=O)N[C@H](Cc1c[nH]c2ccccc12)C(=O)N[C@H](CCCN=C(N)N)C(=O)O`, the Kb was 0.38 µM on Substance-K receptor [1], 0.562 µM on Substance-K receptor [2] and 0.263 µM at Substance-K receptor [3].

On to `CC(C)[C@H](NC(=O)[C@@H](Cc1c[nH]c2ccccc12)NC(=O)[C@H](Cc1ccc(O)cc1)NC(=O)[C@@H](N)CC(=O)O)C(=O)N[C@H](Cc1c[nH]c2ccccc12)C(=O)N[C@H](Cc1c[nH]c2ccccc12)C(=O)N[C@@H](Cc1ccc(O)cc1)C(=O)O`, for which the Kb at Substance-K receptor [1] is 0.191 µM; at Substance-K receptor [2], 1.74 µM; at Substance-K receptor [3] it was 100 µM.

Take H-DYYVYYR-OH: the Kb at Substance-K receptor [1] is 9.33 µM; on Substance-K receptor [2], 100 µM; on Substance-K receptor [3], 100 µM.

In test [4], `CC[C@H](C)[C@H](N)C(=O)N[C@H](C(=O)O)C(C)O` (single isomer, unassigned) yielded a Log 1/T of 1.49.

`NCC(=O)N[C@@H](Cc1ccccc1)C(=O)O` (H-Gly-Phe-OH): the Log 1/T in test [4] came to 1.8. In addition, the IC50 in test [5] was 631 µM.

In the case of `CC(C)[C@H](NC(=O)[C@@H](Cc1c[nH]c2ccccc12)NC(=O)[C@H](Cc1ccc(O)cc1)NC(=O)[C@@H](N)CC(=O)O)C(=O)N[C@H](Cc1c[nH]c2ccccc12)C(=O)N[C@H](Cc1c[nH]c2ccccc12)C(=O)NCC(=O)O`, the Kb on Substance-K receptor [1] is 0.0347 µM; on Substance-K receptor [2] it was 0.141 µM; on Substance-K receptor [3] it was 1.48 µM.

Consider `CC(C)[C@H](NC(=O)[C@@H](Cc1c[nH]c2ccccc12)NC(=O)[C@H](Cc1ccc(O)cc1)NC(=O)[C@@H](N)CC(=O)O)C(=O)NCC(=O)N[C@H](Cc1c[nH]c2ccccc12)C(=O)N[C@@H](CCCN=C(N)N)C(=O)O`, for which the Kb was 18.6 µM on Substance-K receptor [1], 6.31 µM at Substance-K receptor [2] and 19.5 µM on Substance-K receptor [3].

As for `CC(C)[C@H](NC(=O)[C@@H](Cc1c[nH]c2ccccc12)NC(=O)[C@H](Cc1ccc(O)cc1)NC(=O)[C@@H](N)CC(=O)O)C(=O)N[C@H](Cc1c[nH]c2ccccc12)C(=O)N[C@H](Cc1c[nH]c2ccccc12)C(=O)N[C@H](Cc1c[nH]c2ccccc12)C(=O)O`, the Kb was 0.155 µM at Substance-K receptor [1], 1.38 µM at Substance-K receptor [2] and 1.62 µM at Substance-K receptor [3].

Turning to `CC(C)[C@H](NC(=O)[C@@H](Cc1c[nH]c2ccccc12)NC(=O)[C@H](Cc1c[nH]c2ccccc12)NC(=O)[C@@H](N)CC(=O)O)C(=O)N[C@H](Cc1c[nH]c2ccccc12)C(=O)N[C@H](Cc1c[nH]c2ccccc12)C(=O)N[C@@H](CCCN=C(N)N)C(=O)O`, the Kb at Substance-K receptor [1] is 0.339 µM; at Substance-K receptor [2] it was 11.2 µM; at Substance-K receptor [3], 6.31 µM.

As to `CSCC[C@H](NC(=O)[C@H](CC(C)C)NC(=O)CNC(=O)[C@@H](Cc1c[nH]c2ccccc12)NC(=O)[C@H](Cc1ccccc1)NC(=O)[C@@H](Cc1c[nH]c2ccccc12)NC(=O)[C@@H](N)CC(=O)O)C(=O)O`, the Kb is 7.76 µM on Substance-K receptor [1], 9.12 µM at Substance-K receptor [2] and 5.89 µM at Substance-K receptor [3].

`CC(C)C[C@H](NC(=O)[C@@H](N)C(C)C)C(=O)O` (H-Val-Leu-OH) registered a Log 1/T in test [4] of 2.

On to H-DYPVWWR-OH, for which the Kb at Substance-K receptor [1] is 4.37 µM; at Substance-K receptor [2] it was 17.4 µM; at Substance-K receptor [3] it was 12.9 µM.

With `CC(C)[C@@H](NC(=O)[C@@H](Cc1c[nH]c2ccccc12)NC(=O)[C@@H](Cc1ccc(O)cc1)NC(=O)[C@@H](N)CC(=O)O)C(=O)N[C@H](Cc1c[nH]c2ccccc12)C(=O)N[C@H](Cc1c[nH]c2ccccc12)C(=O)N[C@H](CCCN=C(N)N)C(=O)O`, the values for the Kb on Substance-K receptor [1], at Substance-K receptor [2] and on Substance-K receptor [3] were 0.851 µM, 1.1 µM and 0.407 µM, respectively.

As for `C[C@H](N)C(=O)N[C@@H](Cc1ccccc1)C(=O)O`, the Log 1/T in test [4] was 1.72. Besides, in test [5], the IC50 was 191 µM.

Regarding `CC(C)C[C@H](NC(=O)[C@@H](Cc1c[nH]c2ccccc12)NC(=O)[C@@H](Cc1c[nH]c2ccccc12)NC(=O)[C@@H](NC(=O)[C@@H](Cc1c[nH]c2ccccc12)NC(=O)[C@H](Cc1ccc(O)cc1)NC(=O)[C@@H](N)CC(=O)O)C(C)C)C(=O)O`, the values for the Kb at Substance-K receptor [1], at Substance-K receptor [2] and on Substance-K receptor [3] were 0.0794 µM, 1.2 µM and 1.62 µM, respectively.

With `C[C@H](NC(=O)[C@@H](Cc1c[nH]c2ccccc12)NC(=O)[C@H](Cc1ccc(O)cc1)NC(=O)[C@@H](N)CC(=O)O)C(=O)N[C@H](Cc1c[nH]c2ccccc12)C(=O)N[C@H](Cc1c[nH]c2ccccc12)C(=O)N[C@@H](CCCCN)C(=O)O`, the Kb was 0.295 µM at Substance-K receptor [1], 0.355 µM at Substance-K receptor [2] and 1.35 µM on Substance-K receptor [3].

With `CSCC[C@H](NC(=O)[C@H](CC(C)C)NC(=O)CNC(=O)[C@@H](Cc1c[nH]c2ccccc12)NC(=O)[C@H](Cc1ccccc1)NC(=O)[C@H](Cc1ccc(O)cc1)NC(=O)[C@@H](N)CC(=O)O)C(=O)O`, the Kb is 14.1 µM at Substance-K receptor [1], 14.8 µM at Substance-K receptor [2] and 100 µM on Substance-K receptor [3].

As for `CC(C)C[C@H](NC(=O)CN)C(=O)O`, the Log 1/T in test [4] is 1.68. In addition, the IC50 in test [5] was 2510 µM.

Consider `CC(C)[C@H](NC(=O)[C@@H](Cc1c[nH]c2ccccc12)NC(=O)[C@H](Cc1ccc(O)cc1)NC(=O)[C@@H](N)CC(=O)O)C(=O)N[C@H](Cc1c[nH]c2ccccc12)C(=O)N[C@H](Cc1c[nH]c2ccccc12)C(=O)N[C@@H](CCCN=C(N)N)C(=O)O`, for which the Kb on Substance-K receptor [1] is 0.251 µM; at Substance-K receptor [2], 1.58 µM; at Substance-K receptor [3], 0.0224 µM.

With `CC(C)[C@H](NC(=O)[C@@H](Cc1c[nH]c2ccccc12)NC(=O)[C@@H](Cc1c[nH]c2ccccc12)NC(=O)[C@@H](N)CC(=O)O)C(=O)N[C@H](Cc1c[nH]c2ccccc12)C(=O)N[C@H](Cc1c[nH]c2ccccc12)C(=O)N[C@@H](CCCN=C(N)N)C(=O)O`, the Kb is 2.4 µM on Substance-K receptor [1], 31.6 µM at Substance-K receptor [2] and 100 µM on Substance-K receptor [3].

For `CSCC[C@H](NC(=O)[C@@H](Cc1c[nH]c2ccccc12)NC(=O)[C@@H](Cc1c[nH]c2ccccc12)NC(=O)[C@@H](NC(=O)[C@@H](Cc1c[nH]c2ccccc12)NC(=O)[C@H](CO)NC(=O)[C@@H](N)CC(=O)O)C(C)C)C(=O)O`, the Kb was 1.95 µM at Substance-K receptor [1], 6.46 µM at Substance-K receptor [2] and 4.79 µM at Substance-K receptor [3].

With `CC(C)C[C@H](NC(=O)[C@@H](Cc1c[nH]c2ccccc12)NC(=O)[C@@H](NC(=O)[C@@H](Cc1c[nH]c2ccccc12)NC(=O)[C@H](Cc1ccc(O)cc1)NC(=O)[C@@H](N)CC(=O)O)C(C)C)C(=O)N[C@@H](CCCN=C(N)N)C(=O)O`, the Kb at Substance-K receptor [1] was 0.224 µM; at Substance-K receptor [2], 0.646 µM; on Substance-K receptor [3] it was 0.191 µM.

As to `CC(C)[C@H](NC(=O)[C@@H](Cc1c[nH]c2ccccc12)NC(=O)[C@H](Cc1ccc(O)cc1)NC(=O)[C@@H](N)CC(=O)O)C(=O)N[C@H](Cc1c[nH]c2ccccc12)C(=O)N[C@H](Cc1c[nH]c2ccccc12)C(=O)N[C@@H](CCC(=O)O)C(=O)O`, the Kb on Substance-K receptor [1] is 0.0309 µM; on Substance-K receptor [2] it was 0.427 µM; on Substance-K receptor [3] it was 2.63 µM.

`CSCC[C@H](NC(=O)[C@@H](Cc1c[nH]c2ccccc12)NC(=O)[C@@H](Cc1c[nH]c2ccccc12)NC(=O)[C@@H](NC(=O)[C@@H](Cc1c[nH]c2ccccc12)NC(=O)[C@H](Cc1ccc(O)cc1)NC(=O)[C@@H](N)CC(=O)O)C(C)C)C(=O)O`: the values for the Kb on Substance-K receptor [1], on Substance-K receptor [2] and at Substance-K receptor [3] were 0.38 µM, 1.45 µM and 0.0891 µM, respectively.

Regarding `CCC(C)[C@H](NC(=O)[C@@H](N)[C@@H](C)CC)C(=O)O` (single isomer, unassigned), in test [4], the Log 1/T stood at 2.26.
